# Laboratory results published in patent US20240277698A1, “METHODS OF USING ALDOSTERONE SYNTHASE INHIBITORS” (CINCOR PHARMA, INC., priority 2021, published 2024).
# Where two headings read alike, the source gives them in different places.
# Columns and labels:
# [1] = Multiple-ascending dose (MAD) study, once daily for 10 days in healthy subjects: plasma pharmacokinetics; format: in vivo, human; settings: for AUC extrap / CLss/F / RAUC (accumulation ratio AUC0-tau/AUC0-24h) / RCmax (accumulation ratio Cmax, D10/Cmax, D1) / AUC(0-t) / Cmax / AUC(0-inf) / AUC / Vd/F / half-life: mean (CV %); for AUC(0-t): read-out: AUC0-24 h; for AUC: read-out: AUC0-tau; for Vd/F: read-out: Vss/F; for half-life: read-out: t½ (converted)
# Procedure: This was a randomized, double-blind study to assess the safety, tolerability, PK, and PD of multiple oral doses of (R)-compound 1 when administered to healthy adult subjects. The study consisted of 5 cohorts, with up to 12 subjects per cohort. Subjects were randomized in a 3:1 ratio to (R)-compound 1 or placebo once daily for 10 days as follows: • Cohort 1: 2.5 mg (R)-compound 1 or matching placebo (low salt diet in 9 subjects receiving (R)-compound 1 and 3 subjects receiving placebo); • Cohort 2: 5.0 mg (R)-compound 1 or matching placebo (low salt diet in 9 subjects receiving (R)-compound 1 and 3 subjects receiving placebo); • Cohort 3: 1.5 mg (R)-compound 1 or matching placebo (normal salt diet in 9 subjects receiving (R)-compound 1 and 3 subjects receiving placebo); • Cohort 4: 2.5 mg (R)-compound 1 or matching placebo (normal salt diet in 6 subjects receiving (R)-compound 1 and 2 subjects receiving placebo); and • Cohort 5: 0.5 mg (R)-compound 1 or matching placebo (normal salt diet in 9 subjects receiving (R)-compound 1 and 3 subjects receiving placebo).
# For each subject, the study consisted of: • A screening period of up to 28 days; • A 5-day inpatient run-in period during which subjects adhered to a controlled, standardized diet and underwent baseline PD assessments; • A 15-day inpatient treatment period, during which subjects received (R)-compound 1 or placebo once daily for 10 days while adhering to a controlled, standardized diet, followed by PK and PD sampling over an additional 5 days; and • A follow-up visit 3 days (1 day) after discharge from the clinical unit. • A cortisol stimulation test (Cohorts 1 and 2 only) and standing aldosterone assessment (all cohorts) were performed on Days 1 and 10. Serial blood samples for PK and PD were obtained prior to and at specified time points over 24 hours after dosing on Day 1 as well as prior to and at specified time points over 120 hours after dosing on Day 10. In addition, blood samples for PK were collected prior to dosing on Days 8 and 9. Urine for PK and PD measurements was collected over 24 hours starting just prior to dosing on Day 1 as well as over 120 hours starting just prior to dosing on Day 10.
# Study subjects were dosed with (R)-compound 1 (oral drinking solution) or matching placebo. The doses of (R)-compound 1 administered were 2.5 and 5.0 mg with a low salt diet and 1.5, 2.5, and 0.5 mg with a normal salt diet.
# (only for (R)-compound 1).
# [2] = SAD study Part 2: adverse events under low/normal salt diet and 3 mg IV dose; format: in vivo
# Procedure: There were no dose-related increases in the incidence of AEs (Table 15). No severe AEs, SAEs, withdrawals due to AEs, or deaths were reported. A larger proportion of subjects reported AEs during the 3 mg IV dose (75%) compared to any of the oral doses (maximum of 66.7% with 3 mg during the low salt diet and with 10 mg during both the low and normal salt diet). Overall, the most frequently reported AEs were nasopharyngitis, asthenia, and dizziness. AEs reported by >1 subject at any dose level and with either salt diet were asthenia (2 subjects [33.3%] with 10 mg low salt diet, 2 subjects [33.3%] with placebo low salt diet), nasopharyngitis (3 subjects [37.5%] with 3 mg IV, 2 subjects [33.3%] with 10 mg low salt diet), dizziness (2 subjects [33.3%] with 3 mg low salt diet) and gingival pain (2 subjects [33.3%] with 10 mg low salt diet). Only 1 AE (dizziness) reported by a subject receiving 10 mg (R)-compound 1 under normal salt diet conditions was considered related to the study drug. One case of fractured coccyx and one case of concussion (both reported for subjects who received the IV dose) were moderate in intensity and all other AEs were mild in intensity. […]
# [3] = 0.5 mg QD, normal salt diet, Day 10
# [4] = 1.5 mg QD, normal salt diet, Day 10
# [5] = 2.5 mg QD, low salt diet, Day 10
# [6] = 2.5 mg QD, normal salt diet, Day 10
# [7] = 5.0 mg QD, low salt diet, Day 10
# [8] = human, plasma, oral, 0.5 mg, 0.5 mg QD, normal salt diet, Day 10
# [9] = human, plasma, oral, 1.5 mg, 1.5 mg QD, normal salt diet, Day 10
# [10] = human, plasma, oral, 2.5 mg, 2.5 mg QD, low salt diet, Day 10
# [11] = human, plasma, oral, 2.5 mg, 2.5 mg QD, normal salt diet, Day 10
# [12] = human, plasma, oral, 5 mg, 5.0 mg QD, low salt diet, Day 10
structure (smiles),measurement,setting,value
"CCC(=O)N[C@@H]1CCCc2c(-c3ccc4c(c3)CCC(=O)N4C)cncc21 [(R)-Compound 1, (R)—N-(4-(1-methyl-2-oxo-1,2,3,4-tetrahydroquinolin-6-yl)-5,6,7,8-tetrahydroisoquinolin-8-yl)propionamide]",AUC extrap,[1]; [3],6.325 (42.2) %
same,CLss/F,[1]; [3],3.421 (29.4) L/h
same,RAUC (accumulation ratio AUC0-tau/AUC0-24h),"[1]; 0.5 mg QD, normal salt diet",1.960 (13.9)
same,"RCmax (accumulation ratio Cmax, D10/Cmax, D1)","[1]; 0.5 mg QD, normal salt diet",1.827 (14.2)
same,AUC extrap,[1]; [4],6.106 (65.9) %
same,CLss/F,[1]; [4],3.350 (27.5) L/h
same,RAUC (accumulation ratio AUC0-tau/AUC0-24h),"[1]; 1.5 mg QD, normal salt diet",2.307 (13.8)
same,"RCmax (accumulation ratio Cmax, D10/Cmax, D1)","[1]; 1.5 mg QD, normal salt diet",2.132 (11.2)
same,AUC extrap,[1]; [5],4.519 (45.4) %
same,CLss/F,[1]; [5],3.277 (16.1) L/h
same,RAUC (accumulation ratio AUC0-tau/AUC0-24h),"[1]; 2.5 mg QD, low salt diet",2.147 (7.4)
same,"RCmax (accumulation ratio Cmax, D10/Cmax, D1)","[1]; 2.5 mg QD, low salt diet",1.965 (15.1)
same,AUC extrap,[1]; [6],3.832 (85.6) %
same,CLss/F,[1]; [6],4.315 (36.9) L/h
same,RAUC (accumulation ratio AUC0-tau/AUC0-24h),"[1]; 2.5 mg QD, normal salt diet",1.994 (22.3)
same,"RCmax (accumulation ratio Cmax, D10/Cmax, D1)","[1]; 2.5 mg QD, normal salt diet",1.706 (34.1)
same,AUC extrap,[1]; [7],5.397 (52.6) %
same,CLss/F,[1]; [7],3.207 (26.3) L/h
same,RAUC (accumulation ratio AUC0-tau/AUC0-24h),"[1]; 5.0 mg QD, low salt diet",2.507 (10.2)
same,"RCmax (accumulation ratio Cmax, D10/Cmax, D1)","[1]; 5.0 mg QD, low salt diet",2.424 (13.6)
same,AUC(0-t),"[1]; human, plasma, oral, 0.5 mg, 0.5 mg QD, normal salt diet, Day 1",79.5 ng·h/mL
same,Cmax,"[1]; human, plasma, oral, 0.5 mg, 0.5 mg QD, normal salt diet, Day 1, read-out: Cmax, D 1",5.36 ng/mL
same,Tmax,"[1]; human, plasma, oral, 0.5 mg, 0.5 mg QD, normal salt diet, Day 1, median (min, max), read-out: Tmax, D 1",2 h
same,AUC(0-inf),[1]; [8],351 ng·h/mL
same,AUC,[1]; [8],155 ng·h/mL
same,Cmax,"[1]; human, plasma, oral, 0.5 mg, 0.5 mg QD, normal salt diet, Day 10, read-out: Cmax, D 10",9.72 ng/mL
same,Vd/F,[1]; [8],152 L
same,Tmax,"[1]; human, plasma, oral, 0.5 mg, 0.5 mg QD, normal salt diet, Day 10, median (min, max), read-out: Tmax, D 10",2 h
same,AUC(0-t),"[1]; human, plasma, oral, 1.5 mg, 1.5 mg QD, normal salt diet, Day 1",205 ng·h/mL
same,Tmax,"[1]; human, plasma, oral, 1.5 mg, 1.5 mg QD, normal salt diet, Day 1, median (min, max), read-out: Tmax, D 1",2.5 h
same,AUC(0-inf),[1]; [9],1110 ng·h/mL
same,AUC,[1]; [9],480 ng·h/mL
same,Vd/F,[1]; [9],137 L
same,Tmax,"[1]; human, plasma, oral, 1.5 mg, 1.5 mg QD, normal salt diet, Day 10, median (min, max), read-out: Tmax, D 10",2.5 h
same,AUC(0-t),"[1]; human, plasma, oral, 2.5 mg, 2.5 mg QD, low salt diet, Day 1",366 ng·h/mL
same,Tmax,"[1]; human, plasma, oral, 2.5 mg, 2.5 mg QD, low salt diet, Day 1, median (min, max), read-out: Tmax, D 1",3 h
same,AUC(0-inf),[1]; [10],1490 ng·h/mL
same,AUC,[1]; [10],783 ng·h/mL
same,Cmax,"[1]; human, plasma, oral, 2.5 mg, 2.5 mg QD, low salt diet, Day 10, read-out: Cmax, D 10",54 ng/mL
same,Vd/F,[1]; [10],135 L
same,Tmax,"[1]; human, plasma, oral, 2.5 mg, 2.5 mg QD, low salt diet, Day 10, median (min, max), read-out: Tmax, D 10",2 h
same,AUC(0-t),"[1]; human, plasma, oral, 2.5 mg, 2.5 mg QD, normal salt diet, Day 1",344 ng·h/mL
same,Tmax,"[1]; human, plasma, oral, 2.5 mg, 2.5 mg QD, normal salt diet, Day 1, median (min, max), read-out: Tmax, D 1",3 h
same,AUC(0-inf),[1]; [11],1460 ng·h/mL
same,AUC,[1]; [11],677 ng·h/mL
same,Vd/F,[1]; [11],150 L
same,Tmax,"[1]; human, plasma, oral, 2.5 mg, 2.5 mg QD, normal salt diet, Day 10, median (min, max), read-out: Tmax, D 10",3 h
same,AUC(0-t),"[1]; human, plasma, oral, 5 mg, 5.0 mg QD, low salt diet, Day 1",658 ng·h/mL
same,AUC(0-inf),[1]; [12],3480 ng·h/mL
same,AUC,[1]; [12],1660 ng·h/mL
same,Vd/F,[1]; [12],134 L
same,Tmax,"[1]; human, plasma, oral, 5 mg, 5.0 mg QD, low salt diet, Day 10, median (min, max), read-out: Tmax, D 10",3 h
same,Tmax,"[1]; human, plasma, oral, 0.5 to 5 mg QD, read-out: median Tmax, range across treatment groups",0.98 to 4 h
same,half-life,"[1]; human, plasma, oral, 1.5 mg QD, normal salt diet, Day 10",29.9 h
same,half-life,"[1]; human, plasma, oral, 2.5 mg QD, normal salt diet, Day 10",25.5 h
same,half-life,"[1]; human, plasma, oral, 5.0 mg QD, low salt diet, Day 10",29.4 h
same,half-life at 10 days,"[1]; human, plasma, oral, approximately, read-out: mean t½, range",26 to 31 h
same,time after dosing within which peak concentrations typically observed,[1]; oral administration,≤ 4 h
same,"Any AE, % of subjects","[2]; 1 mg, low salt diet, N = 6",(33.3) %
same,"Any AE, number of subjects","[2]; 1 mg, low salt diet, N = 6",2
same,"Related AE, number of subjects","[2]; 1 mg, low salt diet, N = 6",0
same,"Any AE, % of subjects","[2]; 1 mg, normal salt diet, N = 6",(50.0) %
same,"Any AE, number of subjects","[2]; 1 mg, normal salt diet, N = 6",3
same,"Related AE, number of subjects","[2]; 1 mg, normal salt diet, N = 6",0
same,proportion of subjects reporting AEs,[2]; 3 mg IV dose,75%
same,"Any AE, % of subjects","[2]; 3 mg IV, N = 8",(75.0) %
same,"Any AE, number of subjects","[2]; 3 mg IV, N = 8",6
same,"Related AE, number of subjects","[2]; 3 mg IV, N = 8",0
same,"proportion of subjects reporting AEs, maximum of the oral doses","[2]; 3 mg low salt diet, 10 mg low and normal salt diet",≤ 66.7%
same,"Any AE, % of subjects","[2]; 3 mg, low salt diet, N = 6",(66.7) %
same,"Any AE, number of subjects","[2]; 3 mg, low salt diet, N = 6",4
same,"Related AE, number of subjects","[2]; 3 mg, low salt diet, N = 6",0
same,"Any AE, % of subjects","[2]; 3 mg, normal salt diet, N = 6",(33.3) %
same,"Any AE, number of subjects","[2]; 3 mg, normal salt diet, N = 6",2
same,"Related AE, number of subjects","[2]; 3 mg, normal salt diet, N = 6",0
same,AEs considered related to the study drug (dizziness),[2]; 10 mg normal salt diet,1 AE
same,"Any AE, % of subjects","[2]; 10 mg, low salt diet, N = 6",(66.7) %
same,"Any AE, number of subjects","[2]; 10 mg, low salt diet, N = 6",4
same,"Related AE, number of subjects","[2]; 10 mg, low salt diet, N = 6",0
same,"Any AE, % of subjects","[2]; 10 mg, normal salt diet, N = 6",(66.7) %
same,"Any AE, number of subjects","[2]; 10 mg, normal salt diet, N = 6",4
same,"Related AE, % of subjects","[2]; 10 mg, normal salt diet, N = 6",(16.7) %
same,"Related AE, number of subjects","[2]; 10 mg, normal salt diet, N = 6",1
